From patent US10626115B2, “Fused pyrimidinone and triazinone derivatives containing bridged nitrogen, their process of preparation and their therapeutic uses as antifungal and/or antiparasitic agents” (UNIVERSITE DE NANTES, priority 2015, dated 2020)
Values after ≈ are worked out from the molar mass of the structure shown. Values belong to the compound of their own block, whether it stands above or below them.

What was measured:
[1] = tested on: A. fumigatus susceptible strain ASFU38A; experiment: Antifungal susceptibility, spectrofluorimetric microdilution, ASFU38A; type: cell-based, Aspergillus fumigatus; settings: Aspergillus fumigatus, read-out: MIC values ASFU38A
Protocol: (§1) Eleven strains of A. fumigatus with various itraconazole susceptibility were used: • Five susceptible strains: ASFU7, ASFU35A, ASFU38A, ASFU76 and ASFU78. • Six itraconazole-resistant strains: ASFU77 (erg11 mutation), ASFU13, ASFU17, ASFU19, ASFU20, ASFU23.
(§2) Antifungal susceptibility was evaluated with a spectrofluorimetric microdilution method. MIC was the concentration that was able to inhibit 80% of fluorescence measured in the control wells.

[2] = tested on: promastigote stage of a Leishmania mexicana strain; experiment: Anti-Trypanosomatidae activity, promastigote stage, spectrofluorimetric microdilution; type: cell-based; settings: for IC50: Leishmania mexicana, promastigote stage, 50% of control growth, read-out: L. mexicana (IC50 μM)
Protocol: Compounds were evaluated on the promastigote stage of a Leishmania mexicana strain using a spectrofluorimetric microdilution method. Inhibitory concentration 50 (IC50) was the concentration that inhibited 50% of the control growth.

[3] = tested on: A. fumigatus susceptible strain ASFU76; experiment: Antifungal susceptibility, spectrofluorimetric microdilution, ASFU76; type: cell-based, Aspergillus fumigatus; settings: Aspergillus fumigatus, read-out: MIC values ASFU76
Protocol: as §1, §2

[4] = tested on: A. fumigatus susceptible strain ASFU7; experiment: Antifungal susceptibility, spectrofluorimetric microdilution, ASFU7; type: cell-based, Aspergillus fumigatus; settings: Aspergillus fumigatus, read-out: MIC values ASFU7
Protocol: as §1, §2

[5] = tested on: A. fumigatus itraconazole-resistant strain ASFU77 (erg11 mutation); experiment: Antifungal susceptibility, spectrofluorimetric microdilution, ASFU77; type: cell-based, Aspergillus fumigatus; settings: for MIC: Aspergillus fumigatus, read-out: MIC values ASFU77
Protocol: as §1, §2

[6] = tested on: fluconazole-susceptible C. albicans strain: CAAL93; experiment: Antifungal susceptibility, spectrofluorimetric microdilution, CAAL93; type: cell-based; settings: Candida albicans, read-out: MIC values CAAL93
Protocol: (§3) Eight strains of Candida spp. with various azoles-susceptibilities were used: • One fluconazole-susceptible C. albicans strain: CAAL93 • Two fluconazole-resistant C. albicans strains: CAAL111 (efflux pump) and CAAL117 (erg11 mutations+voriconazole-resistant) • five fluconazole-resistant Candida non albicans strains: C. krusei (CAKR7, CAKR8), C. glabrata (CAGL2), C. parapsilosis s.l. (CAPA1, CAPA2).
(§4) Antifungal susceptibility was evaluated with a spectrofluorimetric microdilution method.

[7] = tested on: A. fumigatus susceptible strain ASFU78; experiment: Antifungal susceptibility, spectrofluorimetric microdilution, ASFU78; type: cell-based, Aspergillus fumigatus; settings: Aspergillus fumigatus, read-out: MIC values ASFU78
Protocol: as §1, §2

[8] = tested on: A. fumigatus susceptible strain ASFU35A; experiment: Antifungal susceptibility, spectrofluorimetric microdilution, ASFU35A; type: cell-based, Aspergillus fumigatus; settings: Aspergillus fumigatus, read-out: MIC values ASFU35A
Protocol: as §1, §2

[9] = tested on: A. fumigatus itraconazole-resistant strain ASFU17; experiment: Antifungal susceptibility, spectrofluorimetric microdilution, ASFU17; type: cell-based, Aspergillus fumigatus; settings: Aspergillus fumigatus, read-out: MIC values ASFU17
Protocol: as §1, §2

[10] = tested on: A. fumigatus itraconazole-resistant strain ASFU23; experiment: Antifungal susceptibility, spectrofluorimetric microdilution, ASFU23; type: cell-based, Aspergillus fumigatus; settings: Aspergillus fumigatus, read-out: MIC values ASFU23
Protocol: as §1, §2

[11] = tested on: A. fumigatus itraconazole-resistant strain ASFU19; experiment: Antifungal susceptibility, spectrofluorimetric microdilution, ASFU19; type: cell-based, Aspergillus fumigatus; settings: Aspergillus fumigatus, read-out: MIC values ASFU19
Protocol: as §1, §2

[12] = tested on: A. fumigatus itraconazole-resistant strain ASFU20; experiment: Antifungal susceptibility, spectrofluorimetric microdilution, ASFU20; type: cell-based, Aspergillus fumigatus; settings: Aspergillus fumigatus, read-out: MIC values ASFU20
Protocol: as §1, §2

[13] = tested on: fluconazole-resistant C. albicans strain CAAL111 (efflux pump); experiment: microbe, parasite or virus in culture; type: cell-based; settings: Candida albicans, read-out: MIC values CAAL111
Protocol: as §3, §4

[14] = tested on: fluconazole-resistant C. albicans strain CAAL117 (erg11 mutations+voriconazole-resistant); experiment: microbe, parasite or virus in culture; type: cell-based; settings: for MIC: Candida albicans, read-out: MIC values CAAL117; for fold more active than voriconazole against CAAL117: compared with voriconazole
Protocol: as §3, §4

[15] = tested on: fluconazole-resistant C. glabrata (CAGL2); experiment: microbe, parasite or virus in culture; type: cell-based; settings: Nakaseomyces glabratus, read-out: MIC values CAGL2
Protocol: as §3, §4

[16] = tested on: fluconazole-resistant C. krusei (CAKR7); experiment: microbe, parasite or virus in culture; type: cell-based; settings: Pichia kudriavzevii, read-out: MIC values CAKR7
Protocol: as §3, §4

[17] = tested on: fluconazole-resistant C. krusei (CAKR8); experiment: microbe, parasite or virus in culture; type: cell-based; settings: Pichia kudriavzevii, read-out: MIC values CAKR8
Protocol: as §3, §4

[18] = tested on: A. fumigatus itraconazole-resistant strain ASFU13; experiment: Antifungal susceptibility, spectrofluorimetric microdilution, ASFU13; type: cell-based, Aspergillus fumigatus; settings: Aspergillus fumigatus, read-out: MIC values ASFU13
Protocol: as §1, §2

SMILES: C[C@@H](n1ccc2nccn2c1=O)[C@](O)(Cn1cncn1)c1ccc(F)cc1F [Compound 27, 6-[(1R,2R)-2-(2,4-Difluorophenyl)-2-hydroxy-1-methyl-3-(1H-1,2,4-triazol-1-yl)propyl]imidazo[1,2-c]pyrimidin-5-one]
melting point: 156 to 157 °C
MIC [1]: 23 ± 21.1 µg/mL (≈ 59.6 µM)
IC50 [2]: > 100 µM
MIC [3]: 6.76 ± 0.1 µg/mL (≈ 17.5 µM)
MIC [4]: 7.29 ± 0.22 µg/mL (≈ 18.9 µM)
MIC values against ITRA-resistant isolate carrying M220T mutation (ASFU77), in words [5]: in the micromolar range
MIC [5]: 6.47 ± 0.03 µg/mL (≈ 16.7 µM)
MIC [6]: 0.014 ± 0.001 µg/mL (≈ 0.0362 µM)
MIC [7]: 6.03 ± 0.95 µg/mL (≈ 15.6 µM)
MIC [8]: 6.96 ± 1.49 µg/mL (≈ 18 µM)

SMILES: Cc1cn2c(=O)n([C@H](C)[C@](O)(Cn3cncn3)c3ccc(F)cc3F)ccc2n1 [Compound 28, 6-[(1R,2R)-2-(2,4-Difluorophenyl)-2-hydroxy-1-methyl-3-(1H-1,2,4-triazol-1-yl)propyl]-2-methylimidazo[1,2-c]pyrimidin-5-one]
melting point: 103 to 104 °C
IC50 [2]: > 100 µM

SMILES: C[C@@H](n1ccc2nc(-c3ccc(F)cc3)cn2c1=O)[C@](O)(Cn1cncn1)c1ccc(F)cc1F [Compound 30, 6-[(1R,2R)-2-(2,4-Difluorophenyl)-2-hydroxy-1-methyl-3-(1H-1,2,4-triazol-1-yl)propyl]-2-(4-fluorophenyl)imidazo[1,2-c]pyrimidin-5-one]
melting point: 114 to 115 °C
effectiveness against the promastigote stage of L. Mexicana, in words [2]: effective
IC50 [2]: 8.1 ± 1.6 µM

SMILES: C[C@@H](n1ccc2nc(-c3ccc(Cl)cc3)cn2c1=O)[C@](O)(Cn1cncn1)c1ccc(F)cc1F [Compound 31, 6-[(1R,2R)-2-(2,4-Difluorophenyl)-2-hydroxy-1-methyl-3-(1H-1,2,4-triazol-1-yl)propyl]-2-(4-chlorophenyl)imidazo[1,2-c]pyrimidin-5-one]
melting point: 158 to 159 °C
MIC [1]: 5.59 ± 0.15 µg/mL (≈ 11.2 µM)
MIC [3]: 5.7 ± 0.51 µg/mL (≈ 11.5 µM)
MIC [4]: 5.04 µg/mL (≈ 10.1 µM)
MIC values against ITRA-resistant isolate carrying M220T mutation (ASFU77), in words [5]: in the micromolar range
MIC [5]: 5.99 ± 0.33 µg/mL (≈ 12.1 µM)
MIC [6]: < 0.001 µg/mL
MIC [7]: 5.72 ± 0.39 µg/mL (≈ 11.5 µM)
MIC [8]: 5.81 ± 0.5 µg/mL (≈ 11.7 µM)

melting point: 161 to 162 °C
SMILES: C[C@@H](n1ccc2nc(-c3ccc(Br)cc3)cn2c1=O)[C@](O)(Cn1cncn1)c1ccc(F)cc1F [Compound 32, 6-[(1R,2R)-2-(2,4-Difluorophenyl)-2-hydroxy-1-methyl-3-(1H-1,2,4-triazol-1-yl)propyl]-2-(4-bromophenyl)imidazo[1,2-c]pyrimidin-5-one]

melting point: 196 to 197 °C
SMILES: C[C@@H](n1ccc2nc(-c3ccc(C(F)(F)F)cc3)cn2c1=O)[C@](O)(Cn1cncn1)c1ccc(F)cc1F [Compound 33, 6-[(1R,2R)-2-(2,4-Difluorophenyl)-2-hydroxy-1-methyl-3-(1H-1,2,4-triazol-1-yl)propyl]-2-[(4-trifluoromethyl)phenyl]imidazo[1,2-c]pyrimidin-5-one]

melting point: 175 to 176 °C
SMILES: C[C@@H](n1ccc2nc(-c3nccs3)cn2c1=O)[C@](O)(Cn1cncn1)c1ccc(F)cc1F [Compound 36, 6-[(1R,2R)-2-(2,4-Difluorophenyl)-2-hydroxy-1-methyl-3-(1H-1,2,4-triazol-1-yl)propyl]-2-(thiazol-2-yl)imidazo[1,2-c]pyrimidin-5-one]

melting point: 148 to 149 °C
SMILES: CCOC(=O)c1cn2c(=O)n([C@H](C)[C@](O)(Cn3cncn3)c3ccc(F)cc3F)ccc2n1 [Compound 37, Ethyl-6-[(1R,2R)-2-(2,4-difluorophenyl)-2-hydroxy-1-methyl-3-(1H-1,2,4-triazol-1-yl)propyl]-5-oxo-imidazo[1,2-c]pyrimidine-2-carboxylate]

melting point: 132 to 133 °C
SMILES: C[C@@H](n1ccc2nc(C#N)cn2c1=O)[C@](O)(Cn1cncn1)c1ccc(F)cc1F [Compound 38, 6-[(1R,2R)-2-(2,4-Difluorophenyl)-2-hydroxy-1-methyl-3-(1H-1,2,4-triazol-1-yl)propyl]-5-oxo-imidazo[1,2-c]pyrimidine-2-carbonitrile]

SMILES: C[C@@H](n1ncc2cccn2c1=O)[C@](O)(Cn1cncn1)c1ccc(F)cc1F [Compound 44, 3-[(1R,2R)-2-(2,4-Difluorophenyl)-2-hydroxy-1-methyl-3-(1,2,4-triazol-1-yl)propyl]-3H-pyrrolo[1,2-d][1,2,4]triazin-4-one]
melting point: 131 to 132 °C
MIC [1]: 55.1 ± 9.96 µg/mL (≈ 143 µM)
MIC [3]: 18.1 ± 10.1 µg/mL (≈ 46.9 µM)
MIC [9]: > 38 µg/mL
MIC [4]: 24.3 ± 9.57 µg/mL (≈ 62.9 µM)
MIC [10]: 9.54 µg/mL (≈ 24.7 µM)
MIC [11]: > 38 µg/mL
MIC [5]: 52.8 ± 4.54 µg/mL (≈ 137 µM)
MIC [6]: < 0.001 µg/mL
MIC [7]: 19.7 ± 12.9 µg/mL (≈ 51 µM)
MIC [12]: 8.04 µg/mL (≈ 20.8 µM)
MIC [8]: 21.4 ± 10.1 µg/mL (≈ 55.3 µM)
MIC [13]: 0.48 ± 0.199 µg/mL (≈ 1.24 µM)
MIC [14]: 0.79 ± 0.092 µg/mL (≈ 2.04 µM)
MIC [15]: 0.099 ± 0.004 µg/mL (≈ 0.256 µM)
MIC [16]: 0.625 ± 0.057 µg/mL (≈ 1.62 µM)
MIC [17]: 1.15 µg/mL (≈ 2.98 µM)
MIC [18]: 4.06 µg/mL (≈ 10.5 µM)

melting point: 142 to 143 °C
SMILES: C[C@@H](n1ncc2cc(Br)cn2c1=O)[C@](O)(Cn1cncn1)c1ccc(F)cc1F [Compound 45, 7-Bromo-3-[(1R,2R)-2-(2,4-difluorophenyl)-2-hydroxy-1-methyl-3-(1,2,4-triazol-1-yl)propyl]-3H-pyrrolo[1,2-d][1,2,4]triazin-4-one]

SMILES: C[C@@H](n1ncc2cc(-c3ccccc3)cn2c1=O)[C@](O)(Cn1cncn1)c1ccc(F)cc1F [Compound 47, 3-[(1R,2R)-2-(2,4-Difluorophenyl)-2-hydroxy-1-methyl-3-(1,2,4-triazol-1-yl)propyl]-7-phenyl-3H-pyrrolo[1,2-d][1,2,4]triazin-4-one]
melting point: 146 to 147 °C
MIC [1]: 58.4 ± 15.7 µg/mL (≈ 126 µM)
MIC [3]: 48.4 ± 7.95 µg/mL (≈ 105 µM)
MIC [4]: 44.1 ± 7.76 µg/mL (≈ 95.3 µM)
MIC [5]: 64.8 ± 7.46 µg/mL (≈ 140 µM)
MIC [6]: < 0.001 µg/mL
MIC [7]: 54.7 ± 12.1 µg/mL (≈ 118 µM)
MIC [8]: 41.3 ± 8.61 µg/mL (≈ 89.4 µM)
MIC [13]: 0.016 ± 0.001 µg/mL (≈ 0.0346 µM)
MIC [14]: 0.014 ± 0.002 µg/mL (≈ 0.0303 µM)
fold more active than voriconazole against CAAL117 [14]: 100 fold
MIC [15]: 0.008 ± 0.005 µg/mL (≈ 0.0173 µM)
MIC [16]: 0.013 ± 0.001 µg/mL (≈ 0.0281 µM)
MIC [17]: 0.014 µg/mL (≈ 0.0303 µM)

SMILES: C[C@@H](n1ncc2cc(-c3ccc(C#N)cc3)cn2c1=O)[C@](O)(Cn1cncn1)c1ccc(F)cc1F [Compound 49, 4-{3-[(1R,2R)-2-(2,4-Difluorophenyl)-2-hydroxy-1-methyl-3-(1,2,4-triazol-1-yl)propyl]-4-oxo-3,4-dihydro-pyrrolo[1,2-d][1,2,4]triazin-7-yl}benzonitrile]
melting point: 201 to 202 °C
MIC [6]: < 0.048 µg/mL
MIC [14]: 0.016 ± 0.001 µg/mL (≈ 0.0328 µM)
fold more active than voriconazole against CAAL117 [14]: 100 fold
MIC [15]: 0.025 ± 0.01 µg/mL (≈ 0.0513 µM)
MIC [16]: 0.058 ± 0.009 µg/mL (≈ 0.119 µM)
MIC [17]: 0.101 ± 0.014 µg/mL (≈ 0.207 µM)

SMILES: N=C(N)c1ccc(OCCCCCOc2ccc(C(=N)N)cc2)cc1 [Pentamidine, reference compound]
IC50 [2]: 0.34 ± 0.03 µM
